From BindingDB's records for doi:10.1021/jm00081a009 (Glaxo Group Research, 1992)
pIC50: −log10 of the molar value.

Assay: Kappa-opioid receptor agonist potency in vitro using rabbit vas deferens(LVD) preparation
`O=C(Cc1ccc(Cl)c(Cl)c1)N1CCCCC1CN1CC=CCC1` (stereo not drawn) showed a pIC50 of 8.20.
With `O=C1CC[C@@H](CN2CCCC2)N(C(=O)Cc2ccc(Cl)c(Cl)c2)C1` the pIC50 was 6.41.
Work on `COC(=O)C1=CCCN(CC2CCCCN2C(=O)Cc2ccc(Cl)c(Cl)c2)C1` (stereo not drawn) yielded a pIC50 of 7.82.
Work on `COC(=O)[C@H]1CC[C@@H](CN2CCCC2)N(C(=O)Cc2ccc(Cl)c(Cl)c2)C1` yielded a pIC50 of 6.52.
`NC(=O)[C@H]1CC[C@@H](CN2CCCC2)N(C(=O)Cc2ccc(Cl)c(Cl)c2)C1` gave a pIC50 of less than 5.00.
Compound `O=C1CCCN(C(=O)Cc2ccc(Cl)c(Cl)c2)C1CN1CCCC1` (stereo not drawn) has a pIC50 of 5.70.
Compound `NC(=O)[C@H]1CCC[C@@H](CN2CCCC2)N1C(=O)Cc1ccc(Cl)c(Cl)c1` has a pIC50 of less than 5.00.
`COC(=O)[C@@H]1CCC[C@@H](CN2CCCC2)N1C(=O)Cc1ccc(Cl)c(Cl)c1` showed a pIC50 of 6.96.
With `NC(=O)[C@@H]1CCN(C(=O)Cc2ccc(Cl)c(Cl)c2)[C@H](CN2CCCC2)C1` the pIC50 was 5.92.
With `O=C(Cc1ccc(Cl)c(Cl)c1)N1CC2(CC[C@H]1CN1CCCC1)OCCO2` the pIC50 was 6.80.
`O=C(Cc1ccc(Cl)c(Cl)c1)N1CCCCC1CN1CCCO1` (stereo not drawn) gave a pIC50 of 7.16.

Assay: Opioid receptor kappa agonist potency was determined in vitro using rabbit vas deferens(LVD) preparation
Work on `O=C(Cc1ccc(Cl)c(Cl)c1)N1CCC2(CC1CN1CCCC1)SCCS2` (stereo not drawn) yielded a pIC50 of 8.30.
In the case of `C=CCC1(CN2CCCC2)CCCCN1C(=O)Cc1ccc(Cl)c(Cl)c1` (stereo not drawn), the pIC50 was less than 5.00.
`COC(=O)/C=C1\CCN(CC2CCCCN2C(=O)Cc2ccc(Cl)c(Cl)c2)C1` (stereo not drawn) showed a pIC50 of 5.99.
Compound `O=C(Cc1ccc(Cl)c(Cl)c1)N1CC[C@H](O)C[C@H]1CN1CCCC1` has a pIC50 of 5.85.
In the case of `C=C1CCN(CC2CCCCN2C(=O)Cc2ccc(Cl)c(Cl)c2)C1` (stereo not drawn), the pIC50 was 7.54.
In the case of `COC(=O)[C@@H]1CCN(C(=O)Cc2ccc(Cl)c(Cl)c2)[C@H](CN2CCCC2)C1`, the pIC50 was 6.60.
`O=C1CCN(C(=O)Cc2ccc(Cl)c(Cl)c2)C(CN2CCCC2)C1` (stereo not drawn) gave a pIC50 of 7.34.
For `O=C(Cc1ccc(Cl)c(Cl)c1)N1CCCCC1CN1CCC(O)C1` (stereo not drawn), the pIC50 was 9.06.
Compound `CC1(CN2CCCC2)CCCCN1C(=O)Cc1ccc(Cl)c(Cl)c1` (stereo not drawn) has a pIC50 of less than 5.00.
For `O=C(Cc1ccc(Cl)c(Cl)c1)N1CCC[C@@H](O)[C@H]1CN1CCCC1`, the pIC50 was 6.23.
For `C[C@H]1CCC[C@@H](CN2CCCC2)N1C(=O)Cc1ccc(Cl)c(Cl)c1`, the pIC50 was 8.77.
Compound `O=C(Cc1ccc(Cl)c(Cl)c1)N1CCCCC1CN1CCCCC1` (stereo not drawn) has a pIC50 of 6.59.
